In PubChem BioAssay AID248 (DTP/NCI, 2004):
Where “and” joins values, the source holds several entries; their conditions need not be identical. Equal values may be shown once. Toxic doses and inconclusive results are not listed. No stated cut-off is given here; in the data, active means T/C of 150% or more; inactive means T/C below 125%.

Tested on: L1210 leukemia ip in BDF1 mice, survival T/C
Test: NCI In Vivo Anticancer Drug Screen. Data for tumor model L1210 Leukemia (intraperitoneal) in B6D2F1 (BDF1) mice
Conditions: endpoint: mean survival time, higher = longer survival
How it was run: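 Antitumor effect is assessed in tumor-bearing animals. Survival in the compound arm is compared with a vehicle-dosed control arm and expressed as their quotient.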

[1] = dose: 100.0 mg/kg/injection, schedule: Q04DX003 (ip), vehicle: saline with Tween-80
[2] = dose: 200.0 mg/kg/injection, schedule: Q04DX003 (ip), vehicle: saline with Tween-80
[3] = dose: 400.0 mg/kg/injection, schedule: Q04DX003 (ip), vehicle: saline with Tween-80
[4] = dose: 100.0 mg/kg/injection, schedule: Q01DX009 (ip), vehicle: saline with Tween-80
[5] = dose: 100.0 mg/kg/injection, schedule: Q04DX003 (ip), vehicle: Klucel (hydroxypropylcellulose) (HPC)
[6] = dose: 200.0 mg/kg/injection, schedule: Q04DX003 (ip), vehicle: Klucel (hydroxypropylcellulose) (HPC)
[7] = dose: 400.0 mg/kg/injection, schedule: Q04DX003 (ip), vehicle: Klucel (hydroxypropylcellulose) (HPC)
[8] = dose: 100.0 mg/kg/injection, schedule: Q01DX009 (ip), vehicle: Klucel (hydroxypropylcellulose) (HPC)
[9] = dose: 200.0 mg/kg/injection, schedule: Q01DX009 (ip), vehicle: Klucel (hydroxypropylcellulose) (HPC)
[10] = dose: 200.0 mg/kg/injection, schedule: Q01DX009 (ip), vehicle: saline with Tween-80
[11] = dose: 400.0 mg/kg/injection, schedule: Q01DX009 (ip), vehicle: saline with Tween-80
[12] = dose: 25.0 mg/kg/injection, schedule: Q04DX003 (ip), vehicle: Klucel (hydroxypropylcellulose) (HPC)
[13] = dose: 50.0 mg/kg/injection, schedule: Q04DX003 (ip), vehicle: Klucel (hydroxypropylcellulose) (HPC)

Measured: T/C

CCCCSc1nc2ccccc2[nH]1
inactive: dose: 100.0 mg/kg/injection, schedule: Q01DX001 (ip), vehicle: saline with Tween-80 93 % of control | [1] 93 % of control | dose: 200.0 mg/kg/injection, schedule: Q01DX001 (ip), vehicle: saline with Tween-80 104 % of control | [2] 97 % of control | dose: 400.0 mg/kg/injection, schedule: Q01DX001 (ip), vehicle: saline with Tween-80 104 % of control | [3] 100 % of control

Nc1cccc(NC(=O)Nc2ccccc2)c1
inactive: dose: 50.0 mg/kg/injection, schedule: Q04DX002 (ip), vehicle: Klucel (hydroxypropylcellulose) (HPC) 105 % of control | dose: 100.0 mg/kg/injection, schedule: Q04DX002 (ip), vehicle: Klucel (hydroxypropylcellulose) (HPC) 91 % of control

c1ccc(CNCCCNCc2ccccn2)nc1
inactive: dose: 50.0 mg/kg/injection, schedule: Q01DX009 (ip), vehicle: saline with Tween-80 93 % of control | [4] 98 % of control

Cc1ccccc1N=Cc1cccc([N+](=O)[O-])c1
inactive: dose: 100.0 mg/kg/injection, schedule: Q01DX001 (ip), vehicle: Klucel (hydroxypropylcellulose) (HPC) 107 % of control | [5] 98 % of control | dose: 200.0 mg/kg/injection, schedule: Q01DX001 (ip), vehicle: Klucel (hydroxypropylcellulose) (HPC) 107 % of control | [6] 101 % of control | dose: 400.0 mg/kg/injection, schedule: Q01DX001 (ip), vehicle: Klucel (hydroxypropylcellulose) (HPC) 112 % of control | [7] 98 % of control

N/C(=N\[N+](=O)[O-])N(CCCCl)N=O
inactive: dose: 3.12 mg/kg/injection, schedule: Q01DX Z (ip), vehicle: saline 105 % of control | dose: 6.25 mg/kg/injection, schedule: Q01DX Z (ip), vehicle: saline 106 % of control | dose: 12.5 mg/kg/injection, schedule: Q01DX Z (ip), vehicle: saline 106 % of control | dose: 18.75 mg/kg/injection, schedule: Q01DX009 (ip), vehicle: saline with Tween-80 107 % of control | dose: 25.0 mg/kg/injection, schedule: Q01DX Z (ip), vehicle: saline 120 % of control | dose: 37.5 mg/kg/injection, schedule: Q01DX009 (ip), vehicle: saline with Tween-80 103 % of control | dose: 40.0 mg/kg/injection, schedule: Q01DX Z (ip), vehicle: carboxymethylcellulose (CMC) 119 % of control | dose: 50.0 mg/kg/injection, schedule: Q01DX001 (ip), vehicle: saline 108 % of control | dose: 60.0 mg/kg/injection, schedule: Q01DX Z (ip), vehicle: carboxymethylcellulose (CMC) 116 % of control | dose: 75.0 mg/kg/injection, schedule: Q01DX009 (ip), vehicle: saline with Tween-80 123 % of control | dose: 90.0 mg/kg/injection, schedule: Q01DX Z (ip), vehicle: carboxymethylcellulose (CMC) 111 % of control | dose: 100.0 mg/kg/injection, schedule: Q01DX001 (ip), vehicle: saline 97 % of control | dose: 150.0 mg/kg/injection, schedule: Q01DX009 (ip), vehicle: saline with Tween-80 104 % of control | dose: 200.0 mg/kg/injection, schedule: Q01DX001 (ip), vehicle: saline 106 % of control

COc1ccc(N(C)C(C)=S)cc1
inactive: dose: 100.0 mg/kg/injection, schedule: Q04DX003 (ip), vehicle: gum acacia 96 % of control | dose: 200.0 mg/kg/injection, schedule: Q04DX003 (ip), vehicle: gum acacia 103 % of control

Cc1c(Cl)cccc1N1C(=O)CC(Sc2ccccc2N)C1=O (configuration not stated)
inactive: [8] 95 % of control | [4] 106 % of control | [5] 92 % of control | [1] 94 % of control | [9] 92 % of control | [10] 107 % of control | [2] 88 % of control | [11] 109 % of control | [7] 89 % of control | [3] 93 % of control

Cc1cc(C)c(S(=O)(=O)c2c(C)cc(C)cc2C)c(C)c1
inactive: [12] 100 % of control | [13] 93 % of control | [5] 88 % of control

NC(=S)c1c(N)ncn1C1OC(CO)C(O)C1O (configuration not stated)
inactive: dose: 100.0 mg/kg/injection, schedule: Q01DX005 (ip), vehicle: saline 92 % of control | dose: 200.0 mg/kg/injection, schedule: Q01DX005 (ip), vehicle: saline 90 % of control

CSc1ncnc2c1nc[n]2[Sn]([c]1ccccc1)([c]1ccccc1)[c]1ccccc1.CSc1ncnc2nc[nH]c12
inactive: dose: 5.0 mg/kg/injection, schedule: Q01DX001 (ip), vehicle: other 108 % of control | dose: 10.0 mg/kg/injection, schedule: Q01DX001 (ip), vehicle: other 104 % of control | dose: 20.0 mg/kg/injection, schedule: Q01DX001 (ip), vehicle: other 111 % of control

CCCCNC(C)(C)C(SSS(=O)(=O)O)c1ccc(Cl)cc1 (configuration not stated)
inactive: [4] 96 % of control | [10] 103 % of control | [11] 92 % of control

Cc1ccc(S(=O)(=O)N2CC3CC2CN3Cc2ccccc2)cc1 (configuration not stated)
inactive: [8] 97 % of control | [5] 98 % of control | [9] 97 % of control | [6] 101 % of control | dose: 400.0 mg/kg/injection, schedule: Q01DX009 (ip), vehicle: Klucel (hydroxypropylcellulose) (HPC) 92 % of control | [7] 106 % of control

[O-][n+]1c2ccc(Cl)cc2nc2ccc(Cl)cc21
inactive: [12] 95 % of control | [13] 93 % of control | [5] 92 % of control and 88 % of control

Cn1nc(C#N)c(C#N)c1NC(=O)C(C)(C)C
inactive: dose: 50.0 mg/kg/injection, schedule: Q04DX002 (ip), vehicle: saline with Tween-80 92 % of control | dose: 100.0 mg/kg/injection, schedule: Q04DX002 (ip), vehicle: saline with Tween-80 103 % of control | dose: 200.0 mg/kg/injection, schedule: Q04DX002 (ip), vehicle: saline with Tween-80 106 % of control

OCCOCCOCCN1CCN(C(c2ccccc2)c2ccc(Cl)cc2)CC1 (configuration not stated)
inactive: dose: 12.5 mg/kg/injection, schedule: Q01DX009 (ip), vehicle: saline 95 % of control | dose: 25.0 mg/kg/injection, schedule: Q01DX009 (ip), vehicle: saline 100 % of control | dose: 50.0 mg/kg/injection, schedule: Q01DX009 (ip), vehicle: saline 101 % of control | dose: 100.0 mg/kg/injection, schedule: Q01DX009 (ip), vehicle: saline 95 % of control | dose: 200.0 mg/kg/injection, schedule: Q01DX009 (ip), vehicle: saline 91 % of control

C=CCc1ccc(OCCOCCN(CC=C(C)C)CC=C(C)C)c(OC)c1
inactive: dose: 12.5 mg/kg/injection, schedule: Q01DX009 (ip), vehicle: Klucel (hydroxypropylcellulose) (HPC) 100 % of control | dose: 12.5 mg/kg/injection, schedule: Q04DX003 (ip), vehicle: Klucel (hydroxypropylcellulose) (HPC) 96 % of control | dose: 25.0 mg/kg/injection, schedule: Q01DX009 (ip), vehicle: Klucel (hydroxypropylcellulose) (HPC) 97 % of control | [12] 98 % of control | dose: 50.0 mg/kg/injection, schedule: Q01DX009 (ip), vehicle: Klucel (hydroxypropylcellulose) (HPC) 95 % of control | [13] 88 % of control

CCOC(=O)c1[nH]c2ccccc2c1CN(CCCl)CCCl
inactive: dose: 2.5 mg/kg/injection, schedule: Q01DX Z (ip), vehicle: saline 107 % of control | dose: 5.0 mg/kg/injection, schedule: Q01DX Z (ip), vehicle: saline 108 % of control | dose: 10.0 mg/kg/injection, schedule: Q01DX Z (ip), vehicle: other 120 % of control | dose: 10.0 mg/kg/injection, schedule: Q01DX Z (ip), vehicle: saline 120 % of control | dose: 20.0 mg/kg/injection, schedule: Q01DX Z (ip), vehicle: other 122 % of control

NC(=S)c1ccncc1
inactive: [4] 104 % of control | [1] 103 % of control | [10] 104 % of control | [2] 109 % of control | [11] 112 % of control | [3] 101 % of control

C[N+](C)(C)Cc1c(C(O)(c2ccccc2)c2ccccc2)ccc2ccccc12
inactive: dose: 50.0 mg/kg/injection, schedule: Q01DX001 (ip), vehicle: carboxymethylcellulose (CMC) 94 % of control | dose: 100.0 mg/kg/injection, schedule: Q01DX001 (ip), vehicle: carboxymethylcellulose (CMC) 96 % of control

O=S1(=O)C(c2ccccc2)CC1c1ccccc1 (configuration not stated)
inactive: dose: 75.0 mg/kg/injection, schedule: Q04DX003 (ip), vehicle: Klucel (hydroxypropylcellulose) (HPC) 107 % of control | dose: 150.0 mg/kg/injection, schedule: Q04DX003 (ip), vehicle: Klucel (hydroxypropylcellulose) (HPC) 104 % of control | dose: 300.0 mg/kg/injection, schedule: Q04DX003 (ip), vehicle: Klucel (hydroxypropylcellulose) (HPC) 96 % of control
